Entries after “also recorded” stand apart in the source; their conditions may differ.

For assay [1], the system named is cultured adult rat thoracic DRG neurons. The assay is described as follows: CGRP release assay in cultured DRG neurons. The assay is classed as cell-based. How it is done: Cell Culture. Primary cultures of rat DRG neurons were prepared from male adult Sprague Dawley rats (200-250 gm). Following enzymatic treatment and dissociation, neurons were spun through a percoll cushion (Hofbauer et al. 1998) and were plated at a density of 10,000-20,000 neurons/well of a 48 well tissue culture plate. Cultures were maintained in DME+10% FCS supplemented with penicillin/streptomycin, 150 μM uridine and 50 μM 5-fluoro-2-deoxyuridine (Nguyen et al. 1999). NGF (murine, recombinant, 2.5S; Promega, Madison, Wis.) was used at 50 ng/ml. Neurons were treated for five days before release experiments or Calcium-imaging studies were performed.
CGRP release assay. Immunoreactive calcitonin gene-related peptide (IR-CGRP) release from DRG cultures was performed as described by Hingtgen et al. (1995). Briefly, neuron cultures were washed with Release Buffer (RB) (25 mM Hepes, pH 7.4, 135 mM NaCl, 3.5 mM KCl, 2.5 mM CaCl2, 1 mM MgCl2, 3.3 mM Glucose, 0.1% BSA, 1 μM phosphoamidon), and were incubated for 10 min at 37° C. in RB plus 0.1% ethanol (Capsaicin vehicle) to measure basal CGRP release. Fresh RB containing the appropriate concentration of activating peptide (AcPep) or control peptide (CoPep) was added for an additional 10 minutes. Peptide treatment was followed by a 10 minute incubation with an appropriate dose of Capsaicin or KCl. IR-CGRP released by neurons was measured by ELISA. Activating peptide and control peptide were prepared by standard solid phase synthesis procedures by the UTMB Core Protein Facility.
CGRP Quantification. CGRP was quantified in a standard sandwich ELISA. In brief, 96-well “U” bottom microtiter ELISA plates (Dynex, Chantilly, Va.) were coated with affinity purified polyclonal rabbit antibody to rat CGRP (Peninsula Labs, Belmont, Calif.) at 3 μg/ml in 0.125M borate buffered saline (pH 8.1) (100 μl/well). The plates were incubated overnight at 37° C. The next day, the plates were washed three times with saline containing 0.05% Tween-20. Purified rat CGRP (Peninsula Labs) was used at a previously standardized concentration range of 25-1 ng/ml in a four-fold dilution to generate a standard curve. An equal volume of the sample was added in duplicate to a seventy-five μl/well of Tween-PBS (pH 7.1) and the plates were incubated for two hours on a shaker at room temperature. The plates were washed 3 times with Tween-PBS and 100 μl/well (0.2 mg/ml; 1:500 dilution) of in-house biotinylated, rabbit anti rat CGRP IgG (Peninsula Labs) was applied and incubated for two hours at room temperature. After three washes 150 μl of 1:1000 diluted streptavidine-horseradish peroxidase conjugate (Zymed, San Fransisco, Calif.) was added to each well and the plates were incubated for 90 min at room temperature. One-hundred-fifty μl/well of the substrate ortho-phenylene diamine dihydrochloride (Sigma Chemicals, St. Louis, Mo.) 0.4 mg/ml in citrate buffer (pH 4.9) was added after plates were washed three more times. Forty μl/100 ml of 30% H2O2 was added fresh to the citrate buffer just before adding to the wells to activate the coloring reaction. The reaction was stopped with 5N H2SO4 (50 μl/well) and the plates were read at 490 nm in an automated ELISA reader (Bio-Tek Instruments, Inc., Winooski, VE). The OD values were plotted against the CGRP standard curve and CGRP immunoreactivity was quantified using the appropriate formula and expressed as nanogram/ml.
Statistics. Release data are presented as the mean± standard error of the mean (SEM) of wells from three separate experiments. To compare the effects of activating peptide and control peptide on subsequent evoked release, an overall test based on the analysis of variance was performed (ANOVA). […] Intraductal injection studies were analyzed using a repeated measure ANOVA and individual means were compared using a Newman-Keuls multiple comparison test. Significance levels were set at p<0.05. […]

For the next assay, the target named is T1, PAR-2 (Homo sapiens, UniProt P55085).
T1 sequence (P55085 26-397): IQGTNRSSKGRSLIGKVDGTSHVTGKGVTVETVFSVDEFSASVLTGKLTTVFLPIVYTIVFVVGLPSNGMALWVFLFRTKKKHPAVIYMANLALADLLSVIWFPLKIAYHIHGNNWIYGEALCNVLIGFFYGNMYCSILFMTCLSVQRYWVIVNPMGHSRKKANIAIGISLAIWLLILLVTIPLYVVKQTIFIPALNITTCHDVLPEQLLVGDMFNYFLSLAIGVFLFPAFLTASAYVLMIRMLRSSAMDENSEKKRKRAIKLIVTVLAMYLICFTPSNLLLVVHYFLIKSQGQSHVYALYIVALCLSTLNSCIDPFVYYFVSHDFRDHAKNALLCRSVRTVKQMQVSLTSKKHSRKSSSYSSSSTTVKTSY
To be noted: Blackhart et al. 1996; cited from earlier work.

The test system of assay [2] is peripheral afferent nerve endings. To be noted: subcutaneous injection of 500 μg into the rat paw; cited from earlier work.
In another assay the target is T2, PAR-1 (Homo sapiens, UniProt P25116).
T2 sequence (P25116 22-425): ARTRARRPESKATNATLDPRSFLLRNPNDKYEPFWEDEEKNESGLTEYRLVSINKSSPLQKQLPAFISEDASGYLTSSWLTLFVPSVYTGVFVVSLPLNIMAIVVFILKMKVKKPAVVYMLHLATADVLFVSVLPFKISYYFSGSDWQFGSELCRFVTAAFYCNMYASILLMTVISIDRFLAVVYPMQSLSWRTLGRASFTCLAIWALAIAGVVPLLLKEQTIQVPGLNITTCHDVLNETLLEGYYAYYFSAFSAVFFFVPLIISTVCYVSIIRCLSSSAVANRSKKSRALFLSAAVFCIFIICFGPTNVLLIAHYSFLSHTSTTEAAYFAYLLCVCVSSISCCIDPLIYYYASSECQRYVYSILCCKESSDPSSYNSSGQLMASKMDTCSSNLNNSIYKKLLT
To be noted: Blackhart et al. 1996; cited from earlier work.

On to “SLIGRL (PEPTIDE (1)..(6) PAR-2 activating peptide; listed as Rattus sp.) [AcPep]”, for which the “CGRP release induced by Capsaicin (50 nM)” value in assay [1] (10 min pretreatment with peptide 10 μM, then Capsaicin 50 nM for 10 min in presence of peptide, mean of wells, three experiments) came to 7.3 ng/mL. Also, the “CGRP release induced by KCl (70 mM)” value in assay [1] (10 min pretreatment with peptide 10 μM, then KCl 70 mM for 10 min in presence of peptide, mean of wells, three experiments) was 2.7 ng/mL. Also, the “CGRP release by peptide alone (basal release)” value in assay [1] (peptide 10 μM alone, 10 minute incubation) is recorded as “did not significantly increase CGRP release; also recorded: does not induce CGRP release; also recorded: no effect on basal CGRP release”. For the same substance, the “KCl evoked IR-CGRP release, in words, versus CoPep” value in assay [1] (pre-treatment 10 μM for 10 minutes, KCl 70 mM) is recorded as “significantly higher increase; also recorded: significantly enhances”. The “Capsaicin-evoked CGRP release, in words, versus CoPep” value in assay [1] (pretreatment 10 μM for 10 minutes, Capsaicin 50 nM) is “significant increase; also recorded: significantly enhances”. Further, the “activation of PAR-2” value in the assay with PAR-2 is given as “only activates PAR-2”. In assay [2], the “release of CGRP and Substance P from peripheral afferent nerve endings” value was “results in the release of CGRP and Substance P”. Moreover, in the assay with PAR-1, the “activation of PAR-1” value was “does not activate PAR-1”.

Values taken from patent US7541156B1, “Method of identifying antinociceptive compounds using protease activated receptor-2” (priority 2000, dated 2009).
